From patent publication US10167262B2, “Herbicidal substituted 3-arylpyrazoles” (FMC CORPORATION, priority 2014, dated 2019)

How the values were obtained:
Format in all cases: in vivo
kochia (Kochia scoparia) = experiment: Test C postemergence greenhouse test, plant response rating 0-100; conditions: for Plant response rating, Kochia: scale 0 to 100
Procedure, shortened: (§1)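 Formulated compounds applied postemergence; plants 1- to 4-leaf stage. Evaluated visually vs. untreated controls after roughly two weeks (13–15 d) under greenhouse conditions; 100 denotes complete control.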

[1] = system: chickweed (common chickweed, Stellaria media); experiment: as above; conditions: for Plant response rating, Chickweed: scale 0 to 100
Procedure, shortened: as §1

wild oat (Avena fatua) = experiment: as above; conditions: for Plant response rating, Oat, Wild: scale 0 to 100
Procedure, shortened: as §1

[2] = system: wheat (Triticum aestivum); experiment: Test A pre-/postemergence greenhouse herbicide test, visual injury rating 0-100
Procedure, shortened: (§2)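 Scale 0–100 (none to complete control), visual, versus untreated controls after approx. 10 greenhouse days. Pre: directed soil spray at planting. Post: 2–10 cm, one- to two-leaf plants. Non-phytotoxic solvent plus surfactant vehicle.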

[3] = system: velvetleaf (Abutilon theophrasti); experiment: as above
Procedure, shortened: as §2

[4] = system: giant foxtail (Setaria faberii); experiment: as above
Procedure, shortened: as §2

[5] = system: large (Lg) crabgrass (Digitaria sanguinalis); experiment: as above
Procedure, shortened: as §2

[6] = system: pigweed (Amaranthus retroflexus); experiment: as above
Procedure, shortened: as §2

[7] = system: morningglory (Ipomoea spp.); experiment: as above
Procedure, shortened: as §2

corn (Zea mays) = experiment: as above
Procedure, shortened: as §2

[8] = system: barnyardgrass (Echinochloa crus-galli); experiment: as above
Procedure, shortened: as §2

[9] = system: blackgrass (Alopecurus myosuroides); experiment: Test C pre-/postemergence greenhouse test, plant response rating 0-100; conditions: Postemergence; for Plant response rating, Blackgrass: scale 0 to 100
Procedure, shortened: (§3)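 Pre-emergence soil and post-emergence foliar sprays were applied simultaneously to seeded loam–sand pots and to 1–4-leaf plants in peat medium; greenhouse holding lasted 13–15 days, then plants were scored visually from 0 (no effect) to 100 (complete control).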

[10] = system: ragweed (common ragweed, Ambrosia elatior); experiment: as above
Procedure, shortened: as §3

## O=C(c1ccccc1)c1cn(S(=O)(=O)C(F)(F)F)nc1-c1cc(Cl)cc(Cl)c1 [Compound 2]
Kochia (Kochia scoparia); 62 g ai/ha
  Plant response rating (0 to 100), Kochia: 80
Kochia (Kochia scoparia); 125 g ai/ha
  Plant response rating (0 to 100), Kochia: 85
Kochia (Kochia scoparia); 250 g ai/ha
  Plant response rating, Kochia: 90
Kochia (Kochia scoparia); 500 g ai/ha
  Plant response rating, Kochia: 95
[1]; 62 g ai/ha
  Plant response rating (0 to 100), Chickweed: 98
[1]; 125 g ai/ha
  Plant response rating (0 to 100), Chickweed: 100
[1]; 250 g ai/ha
  Plant response rating, Chickweed: 100
[1]; 500 g ai/ha
  Plant response rating, Chickweed: 100
Wild oat (Avena fatua); 62 g ai/ha
  Plant response rating (0 to 100), Oat, Wild: 0
Wild oat (Avena fatua); 125 g ai/ha
  Plant response rating (0 to 100), Oat, Wild: 0
Wild oat (Avena fatua); 250 g ai/ha
  Plant response rating, Oat, Wild: 0
Wild oat (Avena fatua); 500 g ai/ha
  Plant response rating, Oat, Wild: 0
[2]; Postemergence, 125 g ai/ha
  Plant response rating (0 to 100 scale), Wheat: 0
[2]; Postemergence, 500 g ai/ha
  Plant response rating (0 to 100 scale), Wheat: 0
[2]; Preemergence, 125 g ai/ha
  Wheat plant response rating (0 = no effect, 100 = complete control): 0
[2]; Preemergence, 500 g ai/ha
  Plant response rating (0 to 100 scale), Wheat: 0
[3]; Postemergence, 125 g ai/ha
  Plant response rating (0 to 100 scale), Velvetleaf: 90
[3]; Postemergence, 500 g ai/ha
  Plant response rating (0 to 100 scale), Velvetleaf: 100
[3]; Preemergence, 125 g ai/ha
  Velvetleaf plant response rating (0 = no effect, 100 = complete control): 20
[3]; Preemergence, 500 g ai/ha
  Plant response rating (0 to 100 scale), Velvetleaf: 100
[4]; Postemergence, 125 g ai/ha
  Plant response rating (0 to 100 scale), Foxtail, Giant: 0
[4]; Postemergence, 500 g ai/ha
  Plant response rating (0 to 100 scale), Foxtail, Giant: 0
[4]; Preemergence, 125 g ai/ha
  Foxtail, Giant plant response rating (0 = no effect, 100 = complete control): 0
[4]; Preemergence, 500 g ai/ha
  Plant response rating (0 to 100 scale), Foxtail, Giant: 0
[5]; Postemergence, 125 g ai/ha
  Plant response rating (0 to 100 scale), Crabgrass, Large: 0
[5]; Postemergence, 500 g ai/ha
  Plant response rating (0 to 100 scale), Crabgrass, Large: 0
[5]; Preemergence, 125 g ai/ha
  Crabgrass, Large plant response rating (0 = no effect, 100 = complete control): 0
[5]; Preemergence, 500 g ai/ha
  Plant response rating (0 to 100 scale), Crabgrass, Large: 0
[6]; Postemergence, 125 g ai/ha
  Plant response rating (0 to 100 scale), Pigweed: 90
[6]; Postemergence, 500 g ai/ha
  Plant response rating (0 to 100 scale), Pigweed: 100
[6]; Preemergence, 125 g ai/ha
  Pigweed plant response rating (0 = no effect, 100 = complete control): 50
[6]; Preemergence, 500 g ai/ha
  Plant response rating (0 to 100 scale), Pigweed: 100
[7]; Postemergence, 125 g ai/ha
  Plant response rating (0 to 100 scale), Morningglory: 0
[7]; Postemergence, 500 g ai/ha
  Plant response rating (0 to 100 scale), Morningglory: 0
[7]; Preemergence, 125 g ai/ha
  Morningglory plant response rating (0 = no effect, 100 = complete control): 0
[7]; Preemergence, 500 g ai/ha
  Plant response rating (0 to 100 scale), Morningglory: 0
Corn (Zea mays); Postemergence, 125 g ai/ha
  Plant response rating (0 to 100 scale), Corn: 0
Corn (Zea mays); Postemergence, 500 g ai/ha
  Plant response rating (0 to 100 scale), Corn: 0
Corn (Zea mays); Preemergence, 125 g ai/ha
  Corn plant response rating (0 = no effect, 100 = complete control): 0
Corn (Zea mays); Preemergence, 500 g ai/ha
  Plant response rating (0 to 100 scale), Corn: 0
[8]; Postemergence, 125 g ai/ha
  Plant response rating (0 to 100 scale), Barnyardgrass: 0
[8]; Postemergence, 500 g ai/ha
  Plant response rating (0 to 100 scale), Barnyardgrass: 0
[8]; Preemergence, 125 g ai/ha
  Barnyardgrass plant response rating (0 = no effect, 100 = complete control): 0
[8]; Preemergence, 500 g ai/ha
  Plant response rating (0 to 100 scale), Barnyardgrass: 0
[9]; 62 g ai/ha
  Plant response rating (0 to 100), Blackgrass: 0
[9]; 125 g ai/ha
  Plant response rating, Blackgrass: 0
[9]; 250 g ai/ha
  Plant response rating, Blackgrass: 0
[9]; 500 g ai/ha
  Plant response rating, Blackgrass: 0
[10]; Postemergence, 62 g ai/ha
  Plant response rating (0 to 100), Ragweed: 40
[10]; Postemergence, 125 g ai/ha
  Plant response rating (0 to 100), Ragweed: 60
[10]; Postemergence, 250 g ai/ha, scale 0 to 100
  Plant response rating, Ragweed: 60
[10]; Postemergence, 500 g ai/ha, scale 0 to 100
  Plant response rating, Ragweed: 70
[10]; Preemergence, 0 to 100 scale (0 no effect, 100 complete control), rate 500 g ai/ha per head r3, sub-head of this section not shown
  Plant response rating, Ragweed: 0
